# Legend:
# virus strain F (R13025) = assay: microbe, parasite or virus in culture; assay type: cell-based, HIV; conditions: FR=EC50(mutant strain)/EC50(HIV-1 strain LAI); strain F
# In short: (§1)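 Activity against mutation-bearing clinical isolates is given as fold resistance, the ratio of mutant to HIV-1 LAI EC50. EC50 and EC90 reflect 50% and 90% protection of infected MT4 cells over a five-day culture. Cell survival was quantified by MTT formazan absorbance at 540 nm.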
# virus strain S (R13080) = assay: microbe, parasite or virus in culture; assay type: cell-based, HIV; conditions: FR=EC50(mutant strain)/EC50(HIV-1 strain LAI); strain S
# In short: as §1
# [1] = tested on: clinically isolated HIV strain A; assay: Antiviral spectrum, cellular assay (fold resistance), strain A; assay type: cell-based; conditions: FR=EC50(mutant strain)/EC50(HIV-1 strain LAI)
# Description: (§2) HIV- or mock-infected MT4 cells were incubated for five days in the presence of various concentrations of the inhibitor. At the end of the incubation period, all HIV-infected cells have been killed by the replicating virus in the control cultures in the absence of any inhibitor. Cell viability is measured by measuring the concentration of MTT, a yellow, water soluble tetrazolium dye that is converted to a purple, water insoluble formazan in the mitochondria of living cells only. Upon solubilization of the resulting formazan crystals with isopropanol, the absorbance of the solution is monitored at 540 nm. The values correlate directly to the number of living cells remaining in the culture at the completion of the five day incubation. The inhibitory activity of the compound was monitored on the virus-infected cells and was expressed as EC50 and EC90. These values represent the amount of the compound required to protect 50% and 90%, respectively, of the cells from the cytopathogenic effect of the virus. The toxicity of the compound was measured on the mock-infected cells and was expressed as CC50, which represents the concentration of compound required to inhibit the growth of the cells by 50%. The selectivity index (SI) (ratio CC50/EC50) is an indication of the selectivity of the anti-HIV activity of the inhibitor.
# (§3) Because of the increasing emergence of drug resistant HIV strains, the present compounds were tested for their potency against clinically isolated HIV strains harboring several mutations. These mutations are associated with resistance to protease inhibitors and result in viruses that show various degrees of phenotypic cross-resistance to the currently commercially available drugs such as for instance saquinavir, ritonavir, nelfinavir, indinavir and amprenavir.
# (§4) As a measure of the broad spectrum activity of the present compounds, the fold resistance (FR) defined as FR=EC50(mutant strain)/EC50(HIV-1 strain LAI).
# [2] = tested on: clinically isolated HIV strain B; assay: Antiviral spectrum, cellular assay (fold resistance), strain B; assay type: cell-based; conditions: FR=EC50(mutant strain)/EC50(HIV-1 strain LAI)
# Description: as §2, §3, §4
# [3] = tested on: clinically isolated HIV strain C; assay: Antiviral spectrum, cellular assay (fold resistance), strain C; assay type: cell-based; conditions: FR=EC50(mutant strain)/EC50(HIV-1 strain LAI)
# Description: as §2, §3, §4
# [4] = tested on: clinically isolated HIV strain D; assay: Antiviral spectrum, cellular assay (fold resistance), strain D; assay type: cell-based; conditions: FR=EC50(mutant strain)/EC50(HIV-1 strain LAI)
# Description: as §2, §3, §4
# [5] = tested on: clinically isolated HIV strain E; assay: Antiviral spectrum, cellular assay (fold resistance), strain E; assay type: cell-based; conditions: FR=EC50(mutant strain)/EC50(HIV-1 strain LAI)
# Description: as §2, §3, §4
# [6] = tested on: clinically isolated HIV strain G; assay: Antiviral spectrum, cellular assay (fold resistance), strain G; assay type: cell-based; conditions: FR=EC50(mutant strain)/EC50(HIV-1 strain LAI)
# Description: as §2, §3, §4
# [7] = tested on: clinically isolated HIV strain H; assay type: cell-based; conditions: FR=EC50(mutant strain)/EC50(HIV-1 strain LAI)
# In short: as §1
# [8] = tested on: clinically isolated HIV strain I; assay type: cell-based; conditions: FR=EC50(mutant strain)/EC50(HIV-1 strain LAI)
# In short: as §1
# [9] = tested on: clinically isolated HIV strain J; assay type: cell-based; conditions: FR=EC50(mutant strain)/EC50(HIV-1 strain LAI)
# In short: as §1
# [10] = tested on: clinically isolated HIV strain O; assay type: cell-based; conditions: FR=EC50(mutant strain)/EC50(HIV-1 strain LAI)
# In short: as §1
# [11] = tested on: clinically isolated HIV strain T; assay type: cell-based; conditions: FR=EC50(mutant strain)/EC50(HIV-1 strain LAI)
# In short: as §1
# [12] = tested on: clinically isolated HIV strain K; assay: Antiviral spectrum, cellular assay (fold resistance), strain K; assay type: cell-based; conditions: FR=EC50(mutant strain)/EC50(HIV-1 strain LAI)
# Description: as §2, §3, §4
# [13] = tested on: clinically isolated HIV strain L; assay: Antiviral spectrum, cellular assay (fold resistance), strain L; assay type: cell-based; conditions: FR=EC50(mutant strain)/EC50(HIV-1 strain LAI)
# Description: as §2, §3, §4
# [14] = tested on: clinically isolated HIV strain M; assay: Antiviral spectrum, cellular assay (fold resistance), strain M; assay type: cell-based; conditions: FR=EC50(mutant strain)/EC50(HIV-1 strain LAI)
# Description: as §2, §3, §4
# [15] = tested on: clinically isolated HIV strain N; assay: Antiviral spectrum, cellular assay (fold resistance), strain N; assay type: cell-based; conditions: FR=EC50(mutant strain)/EC50(HIV-1 strain LAI)
# Description: as §2, §3, §4
# [16] = tested on: clinically isolated HIV strain P; assay: Antiviral spectrum, cellular assay (fold resistance), strain P; assay type: cell-based; conditions: FR=EC50(mutant strain)/EC50(HIV-1 strain LAI)
# Description: as §2, §3, §4
# [17] = tested on: clinically isolated HIV strain Q; assay: Antiviral spectrum, cellular assay (fold resistance), strain Q; assay type: cell-based; conditions: FR=EC50(mutant strain)/EC50(HIV-1 strain LAI)
# Description: as §2, §3, §4
# [18] = tested on: clinically isolated HIV strain R; assay: Antiviral spectrum, cellular assay (fold resistance), strain R; assay type: cell-based; conditions: FR=EC50(mutant strain)/EC50(HIV-1 strain LAI)
# Description: as §2, §3, §4
SMILES,"fold resistance (FR), strain F (virus strain F (R13025))","fold resistance (FR), strain S (virus strain S (R13080))","fold resistance (FR), strain A [1]","fold resistance (FR), strain B [2]","fold resistance (FR), strain C [3]","fold resistance (FR), strain D [4]","fold resistance (FR), strain E [5]","fold resistance (FR), strain G [6]","fold resistance (FR), strain H [7]","fold resistance (FR), strain I [8]","fold resistance (FR), strain J [9]","fold resistance (FR), strain O [10]","fold resistance (FR), strain T [11]","fold resistance (FR), strain K [12]","fold resistance (FR), strain L [13]","fold resistance (FR), strain M [14]","fold resistance (FR), strain N [15]","fold resistance (FR), strain P [16]","fold resistance (FR), strain Q [17]","fold resistance (FR), strain R [18]"
CC(C)CN(CC(O)C(Cc1ccccc1)NC(=O)OC1COC2OCCC12)S(=O)(=O)c1ccc2nc(NC(=O)CN3CCCC3)sc2c1 (mixture of isomers) [Compound 7],0.5,2.0,0.2,0.3,0.5,0.5,0.3,0.2,0.5,0.5,0.4,0.4,12.4,0.3,0.1,0.1,0.5,0.1,0.4,0.4
CC(=O)N(C)c1nc2ccc(S(=O)(=O)N(CC(C)C)CC(O)C(Cc3ccccc3)NC(=O)OC3COC4OCCC34)cc2s1 (mixture of isomers) [Compound 9],13.0,29.3,1.5,1.5,1.6,5.7,2.3,1.5,6.7,2.3,6.2,3.7,550.9,1.0,0.7,0.5,1.5,0.2,1.8,1.2
CC(C)CN(CC(O)C(Cc1ccccc1)NC(=O)OC1COC2OCCC12)S(=O)(=O)c1ccc2nc(NC(=O)CN3CCOCC3)sc2c1 (mixture of isomers) [Compound 10],0.5,0.5,0.4,0.4,0.6,0.5,0.4,0.5,0.4,0.4,0.3,0.4,4.9,0.3,0.2,0.3,0.0,0.3,0.3,0.3
CC(C)CN(C[C@@H](O)[C@H](Cc1ccccc1)NC(=O)O[C@H]1CO[C@H]2OCC[C@H]21)S(=O)(=O)c1ccc2nc(NC(=O)CN3CCCC3)sc2c1.O=C(O)/C=C/C(=O)O [Compound 13],0.6,1.0,0.2,0.2,0.2,0.2,0.2,0.2,0.6,0.3,0.2,0.3,5.8,0.2,0.1,0.2,1.0,0.2,0.4,0.2
CC(C)CN(C[C@@H](O)[C@H](Cc1ccccc1)NC(=O)O[C@H]1CO[C@H]2OCC[C@H]21)S(=O)(=O)c1ccc2nc(NC(=O)CN3CCCC3)sc2c1.Cl [Compound 14],0.4,0.7,0.2,0.2,0.2,0.2,0.3,0.2,0.5,0.4,0.3,0.3,5.9,0.2,0.1,0.2,0.9,0.2,0.3,0.2
CC(C)CN(C[C@@H](O)[C@H](Cc1ccccc1)NC(=O)O[C@H]1CO[C@H]2OCC[C@H]21)S(=O)(=O)c1ccc2nc(NC(=O)CN3CCCC3)sc2c1.O=C(O)C(=O)O [Compound 15],0.5,0.8,0.3,0.2,0.3,0.3,0.3,0.3,0.5,0.3,0.3,0.2,7.2,0.3,0.1,0.2,0.4,0.1,0.2,0.2
CC(C)CN(C[C@@H](O)[C@H](Cc1ccccc1)NC(=O)O[C@H]1CCOC1)S(=O)(=O)c1ccc2nc(NC(=O)CN(C)C)sc2c1 [Compound 34],61.9,99.6,5.0,5.9,5.5,6.6,4.5,3.2,11.4,5.6,5.8,5.0,802.7,1.3,1.2,1.2,4.0,0.9,4.0,1.1

# Reference: patent US7659404B2, “Broad spectrum 2-(substituted-amino)-benzothiazole sulfonamide HIV protease inhibitors” (Tibotec Pharmaceuticals Ltd., priority 2001, dated 2010)
